Here are results for three compounds from patent US20240325435A1, “METHODS OF USING COMPOUND OF GLYCOSAMINOGLYCAN” (Holy Stone Healthcare Co., Ltd., priority 2013, published 2024).

Experiment [1] deals with Raw 264.7 cells. Put plainly: In vitro anti-inflammatory effect, PGE2 amount in LPS-treated Raw 264.7 cells. In kind it is cell-based. Particulars: 4 hours.
Procedure: Raw 264.7 cells (1×10^6 cells/well, 1000 μL) were incubated in a 24-well culture plate in the presence of 5% CO2 at 37° C. for 24 hours. • 2. […] Cell media were collected, and used for measuring PGE2. • 4. Nunc-Immuno 96-well plates were coated with goat polyclonal anti-mouse IgG secondary antibody. • 5. Aliquots of cell media were added to the immune plate with primary PGE2 monoclonal antibody and a tracer PGE2-acetylcholinesterase overnight at room temperature in the dark. • 6. The next day, the wells were aspirated, washed with 100 μL wash buffer (Cayman Chemical, Ann Arbor, MI, USA) five times. • 7. 200 μL of Elman's reagent was added in each well, and incubated 60-90 minutes at room temperature out of direct light. • 8. Gentle rotating/shaking was used to decrease the time required for color development. • 9. Absorbance was read at 412 nm. • 10. The PGE2 concentration of each sample was calculated from a PGE2 standard curve. • 11. The PGE2 amount percentage was as a function of the PGE2 level of each sample divided by the one of the control group which was LPS-treated, then multiplied this value by 100. • 12. […]
Raw 264.7 cells (1×10^6 cells/well, 1000 μL) were incubated in a 24-well culture plate in the presence of 5% CO2 at 37° C. for 24 hours. • 2. […] Absorbance was read at 412 nm. • 10. The PGE2 concentration of each sample was calculated from a PGE2 standard curve. • 11. […]
In experiment [2] the test system is Adjuvant-Induced Arthritis (AIA). In words: Adjuvant-Induced Arthritis (rheumatoid arthritis) treatment effect in rats. It counts as in vivo, Sprague-Dawely rats. As to conditions: intravenous injection at day 14, 10 mg/kg. As for the experimental part:
• 1. Thirty of eight weeks male Sprague-Dawely rats (BioLASCO Taiwan Co., Ltd.) were prepared. Rats were divided into 4 groups randomly (n=9 for vehicle and Prednisolone group, n=6 for HA-ADH-Prednisolone and HA group). Every two rats were placed into one cage in rodent animal facility in Institute of Taiwan Animal Technology. • 2. Inject 0.1 mL of CFA (Complete Freund's Adjuvant, 10 mg/mL, Chondrex Inc.) containing 10 mg/mL of heat-killed mycobacterium into subcutaneously at a footpad of right hind limb. • 3. The needle should be inserted just under the skin of the footpad pointing toward the ankle: this maximizes delivery of the adjuvant to the draining popliteal lymph nodes. • 4. Severe and acute inflammation is observed within 30 minutes of injection, peaks within 3 to 4 days, and often persists for 20 to 25 days. • 5. Rat were treated at day 14 after induction of the Adjuvant-Induced Arthritis (AIA) by intravenous injection of Prednisolone or HA-Prednisolone (both 10 mg/kg), or saline as a control. • 6. Rats were sacrificed at day 20 after treatment and tissues were isolated hereafter.
• Paw thickness and Ankle circumference: Paw thickness determined by measuring paw diameter using a caliper, such as Mitsutoyo digimatic caliper. Ankle circumference determined by measuring 2 perpendicular diameters, the latero-lateral diameter (a) and the anteroposterior diameter (b), with a digital caliper and using the following formula: […]

Experiment [3] deals with Raw 264.7 cells. Put plainly: In vitro anti-inflammatory effect, nitrite by Griess reaction in LPS-treated Raw 264.7 cells. In kind it is cell-based. Particulars: 10 μM Budesonide equivalent, 378 μg/ml HA, 4 hours, then 1 μg/mL LPS 24 hours. As to the method: • 1. Raw 264.7 cells were suspended in culture medium without phenol red (Gibco-BRL, Vienna, Austria) and adjusted to 10^6/ml, and treated with 10 μM Budesonide, 378 μg/ml HA and HA-ADH-Budesonide (equal to 10 μM Budesonide). • 2. After treatment with drugs for 4 hours, 1 μg/mL LPS was added into medium for 24 hours. • 3. Cells treated with medium only served as a negative control group and treated with LPS (1 μg/mL) as a positive control group. • 4. The culture supernatants were removed subsequently and the nitric oxide were accumulated for the measurement of iNOS activity by the Griess-reaction. • 5. 100 μl Griess reagent (1% sulfanilamide, 0.1% naphthlethylenediamine dihydrochloride in 2.5% phosphoric acid) was added into 100 μl culture supernatant and the color development was assessed at 550 nm with a ELISA microplate reader (SpectraMax® M2e Multimode Plate Reader, Molecular Devices, USA). • 6. Standard curves were generated with a serial dilution of sodium nitrite dissolved in culture medium which is phenol red free. […] The inflammation index herein is nitrite.

As for `CC(C)(C(=O)O)c1ccc(C(O)CCCN2CCC(C(O)(c3ccccc3)c3ccccc3)CC2)cc1` (stereo not drawn) [Fexofenadine], the “anti-inflammation effect, change percentage of PGE2 amount (FIG. 8)” value with Raw 264.7 cells [1] (100 μM Fexofenadine or equivalent, then 1 μg/mL LPS 24 h) is “has treatment effect”.

As to `C[C@]12C=CC(=O)C=C1CC[C@@H]1[C@@H]2[C@@H](O)C[C@@]2(C)[C@H]1CC[C@]2(O)C(=O)CO` [Prednisolone], the “treatment effect, change percentage of paw thickness (FIG. 11)” value in experiment [2] is listed as “showed the treatment effect”. Besides, the “anti-inflammation effect, change percentage of PGE2 amount (FIG. 10)” value with Raw 264.7 cells [1] (86.7 μM Prednisolone or equivalent, then 1 μg/mL LPS 24 hours) is “has treatment effect”.

For hyaluronic acid [HA], in experiment [2], the “treatment effect, change percentage of ankle circumference (FIG. 12)” value was “enhance RA symptom” and the “treatment effect, change percentage of paw thickness (FIG. 11)” value is reported as “almost the same trend comparing with control group”. The “anti-inflammation effect, change of nitrite concentration (FIG. 6)” value in the experiment with Raw 264.7 cells [3] is “have treatment effect”.
